Results on 23 molecules are retold here after patent publication US10858339B2, “Aryl cyclopropyl-amino-isoquinolinyl amide compounds” (priority 2017, dated 2020).

Where a name gives a salt, the structure may show the parent alone.

The experiment deals with Rho Kinase. Nature of the experiment: ROCK kinase inhibition assay (Rho Kinase Activity, isoform not given). Type of experiment: biochemical. Conditions: Table 15, mostly given as ranges. On the procedure: All compounds were initially prepared as 10 mM stocks in anhydrous dimethylsulfoxide (DMSO). A 20 μl aliquot of the 10 mM solutions was transferred to individual wells in column 1 of a 96-well polypropylene microtiter plate (Corning #3363) and diluted with DMSO to give a final compound concentration of 4 mM. Test compounds were then serially diluted 1:5 in DMSO for an 11-point concentration response and further diluted in the assay buffer bringing all compound concentrations to a final range of 100 μM to […] in 2.5% DMSO. The assay was performed in white 96-well, flat-bottom, half-area, non-binding assay plate (Corning #3642) in assay buffer consisting of 20 mM HEPES (pH 7.5), 10 mM MgCl2*6H2O, 100 μM sodium orthovanadate, 0.05% CHAPS and 0.1% bovine serum albumin. A 10 μL aliquot of compound from each well of the intermediate dilution plate and 20 μL of a 2× substrate/enzyme solution containing acceptor substrate (800 nM RSK2 peptide […] (SEQ ID NO: 1)), ROCK2 enzyme (10 nM), or ROCK1 enzyme, and 1,4-Dithiothreitol (DTT, 2 uM) were added to all wells. The reaction was initiated by the addition of 10 μL of 4× stock solution ATP (2 μM). Reactions were thoroughly mixed manually, covered and allowed to incubate at room temperature for 75 min. Protein kinase activity was quantitated using Promega's KINASE-GLO™ luminescent Kinase Assay Kit according to the manufacturer's directions. ATP concentrations remaining in Test wells following the termination of the enzymatic reaction were compared against control wells containing equivalent amounts of DMSO containing no inhibitor (CTRL). […] Percent of Control (POC) values were determined for each concentration of compound tested according to the equation: POC=((Test well value−BKG)/(CTRL−BKG))*100
IC50 values were converted to K; […]
As usually defined, the Ki is the equilibrium dissociation constant of an inhibitor or competing ligand from its target. A lower Ki goes with tighter binding. Molecule `O=C(Nc1ccc2cnccc2c1)C1CC1c1ccc(COCc2ccccc2)cc1` (centres unmarked) gave a Ki of 350 to 600 nM.
Then `CC(C)(C)OC(=O)N1CCC(CNCc2ccc(C3CC3C(=O)Nc3ccc4cnccc4c3)cc2)CC1` (centres unmarked) [Example E162.1], with 200 to 600 nM; and `O=C(Nc1ccc2cnccc2c1)C1CC1c1ccccc1` (centres unmarked), with 5 to 13 nM; and `O=C(NCc1ccc(Cl)cc1)c1ccc(C2CC2C(=O)Nc2ccc3cnccc3c2)cc1` (centres unmarked) [Example E14], with 3 to 43 nM.
Then `CC(C)(C)OC(=O)c1ccc(C2CC(=O)N(c3ccc4cnccc4c3)C2)cc1` (centres unmarked) [Example E230, tert-butyl 4-(1-(isoquinolin-6-yl)-5-oxopyrrolidin-3-yl)benzoate], with 14000 to 25000 nM.
Take `O=C(NCc1ccc(Cl)cc1)c1ccc(C2CC2C(=O)Nc2ccc3cnccc3c2)c(F)c1` (centres unmarked) [Example E195]: the Ki was in the range of 70 to 100 nM.
`O=C(Nc1ccc2cncc(Cl)c2c1)[C@@H]1C[C@H]1c1ccc(S(=O)(=O)NC[C@H]2CCCNC2)cc1` [E250E*] displayed a Ki of 9 to 11 nM.
Then `C[C@@H]1OC(c2ccc(C3CC(=O)N(c4ccc5cnccc5c4)C3)cc2)O[C@H]1C` (stereo partly drawn) [Example E223, 4-(4-((4S,5S)-4,5-dimethyl-1,3-dioxolan-2-yl)phenyl)-1-(isoquinolin-6-yl)pyrrolidin-2-one], with 8000 to 15000 nM; and `O=C(NCc1ccc2ccncc2c1)c1ccc(C2CC2C(=O)Nc2ccc3cnccc3c2)cc1F` (centres unmarked) [Example E195.1], with 4 to 7 nM; and `O=C(NCc1ccc(OC(F)(F)F)cc1)c1ccc(C2CC2C(=O)Nc2ccc3cnccc3c2)cc1` (centres unmarked) [Example E15.1], with 65 to 110 nM.
As for `CC(C)(C)OC(=O)N1CCC(CNC(=O)c2ccc(C3CC3C(=O)Nc3ccc4cnccc4c3)cc2F)CC1` (centres unmarked) [Example E195.2], the Ki was in the range of 0.4 to 1 nM.
Then `O=C(NCc1ccncc1)c1ccc(C2CC2C(=O)Nc2ccc3cnccc3c2)cc1` (centres unmarked) [Example E10], with 1 to 7 nM; and `O=C(Nc1ccc2cnccc2c1)[C@@H]1C[C@H]1c1ccc(CNCc2cccnc2)cc1` (relative stereo) [Example E160, trans-N-(isoquinolin-6-yl)-2-(4-(((pyridin-3-ylmethyl)amino)methyl)phenyl)cyclopropane-1-carboxamide], with 250 to 800 nM; and `O=C1CC(c2ccccc2)CN1c1ccc2cnccc2c1` (centres unmarked), with 650 to 1350 nM.
Then `O=C(NCc1cccs1)c1ccc(C2CC2C(=O)Nc2ccc3cnccc3c2)cc1` (centres unmarked) [Example E17], with 2 to 4 nM; and `CC(C)(C)OC(=O)N1CCCC(CNC(=O)c2ccc(C3CC3C(=O)Nc3ccc4cnccc4c3)cc2)C1` (centres unmarked) [Example E30.1], with 10 to 37 nM.
`O=C(O)c1ccc(C2CC(=O)N(c3ccc4cnccc4c3)C2)cc1` (centres unmarked) [Example E231, 4-(1-(isoquinolin-6-yl)-5-oxopyrrolidin-3-yl)benzoic acid] had a Ki of 34000 to 68000 nM.
Under `O=C(NCC1CCCNC1)c1ccc(C2CC2C(=O)Nc2ccc3cnccc3c2)cc1` (centres unmarked) [Example E30.2] stands 1 to 8 nM; under `CC(C)(C)OC(=O)N1CCC(CNCc2ccc(C3CC(=O)N(c4ccc5cnccc5c4)C3)cc2)CC1` (centres unmarked) [Example E227.1], 1300 to 4000 nM; under `O=Cc1ccc(C2CC(=O)N(c3ccc4cnccc4c3)C2)cc1` (centres unmarked) [Example E224, 4-(1-(isoquinolin-6-yl)-5-oxopyrrolidin-3-yl)benzaldehyde], 2600 to 6750 nM.
Take `O=C(Nc1ccc2cnccc2c1)[C@@H]1C[C@H]1c1ccc(S(=O)(=O)N2CCNCC2)cc1` (racemic) [Example E248H, trans)-N-(isoquinolin-6-yl)-2-(4-(piperazin-1-ylsulfonyl)phenyl) cyclopropane-1-carboxamide dihydrochloride]: the Ki fell in the range of 30 to 50 nM.
Then `O=C(NCc1ccncc1)c1cccc(C2CC2C(=O)Nc2ccc3cnccc3c2)c1` (centres unmarked) [Example E174], with 0.15 to 0.3 nM.
In turn, `O=C1CC(c2ccc(CNCC3CCNCC3)cc2)CN1c1ccc2cnccc2c1` (centres unmarked) [Example E227.2] had a Ki of 300 to 600 nM.
